Test results taken from PMC6692300, “Targeting HIBCH to reprogram valine metabolism for the treatment of colorectal cancer” (Cell Death & Disease, 2019).

Target: T1, GFP-HIBCH (3-hydroxyisobutyryl-CoA hydrolase) (Homo sapiens, UniProt Q6NVY1)
T1 construct: GFP fusion of HIBCH
T1 sequence (Q6NVY1 1-386): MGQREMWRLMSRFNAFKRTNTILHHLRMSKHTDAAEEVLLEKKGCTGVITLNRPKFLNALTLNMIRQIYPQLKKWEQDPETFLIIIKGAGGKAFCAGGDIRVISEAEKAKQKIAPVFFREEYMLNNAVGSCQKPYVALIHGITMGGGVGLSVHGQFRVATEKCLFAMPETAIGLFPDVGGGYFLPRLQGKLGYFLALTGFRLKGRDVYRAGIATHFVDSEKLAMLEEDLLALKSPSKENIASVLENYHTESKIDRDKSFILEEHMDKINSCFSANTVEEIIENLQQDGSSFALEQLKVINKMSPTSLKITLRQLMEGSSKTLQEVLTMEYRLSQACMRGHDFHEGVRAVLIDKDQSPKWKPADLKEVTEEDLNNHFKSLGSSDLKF
Assay: microscale thermophoresis
Format: binding
Conditions: GFP-tagged HIBCH; fit of three independent measurements

Kd: 35.9 µM
Compound: CCCCCCCCCCCCOC(=O)[C@@H](C)[C@@]1(O)[C@@H](O[C@@H]2OC[C@H](O)[C@H](O[C@@H]3OC[C@@H](O)[C@H](O)[C@H]3OC(=O)c3ccc(OC)cc3)[C@H]2OC(C)=O)C[C@H]2[C@@H]3CC=C4C[C@@H](O)CC[C@]4(C)[C@H]3CC[C@@]21C [SBF-1]
